Measurements taken from ChEMBL document CHEMBL1201862, “PubChem BioAssay data set” (2004).
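Where inhibition never reached the appropriate level, the endpoint shown equals the highest concentration tested. Otherwise, values were interpolated linearly from a five-concentration, 48-hour dose response in 96-well plates. The concentration for 50% growth inhibition is given as GI50.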 Activity calls are given as the source filed them. No stated cut-off is given here; in the data, active = GI50 up to about 1.1 µM and inactive = higher.

Columns and labels:
Experiment in all cases: NCI tumour cell line growth inhibition, 48 h
[1] = test system: CCRF-CEM
[2] = test system: NCI-H460
[3] = test system: DU-145
[4] = test system: MDA-MB-435
[5] = test system: IGROV-1
[6] = test system: M14
[7] = test system: SN12C
[8] = test system: NCI-H23
[9] = test system: MDA-MB-231
[10] = test system: PC-3
[11] = test system: HCC 2998
[12] = test system: SK-MEL-5
[13] = test system: SK-MEL-28
[14] = test system: SR
[15] = test system: SNB-19
[16] = test system: SK-OV-3
[17] = test system: SW-620
[18] = test system: UO-31
[19] = test system: ACHN
[20] = test system: SF-539

Structure (SMILES)	GI50 [1]	GI50 [2]	GI50 [3]	GI50 [4]	GI50 [5]	GI50 [6]	GI50 [7]	GI50 [8]	GI50 [9]	GI50 [10]	GI50 [11]	GI50 [12]	GI50 [13]	GI50 [14]	GI50 [15]	GI50 [16]	GI50 [17]	GI50 [18]	GI50 [19]	GI50 [20]
CC(C)=CC(=O)c1[nH]c2ccccc2c1CC(=O)NCCc1cncn1C	55.2 µM (inactive)	52.6 µM (inactive)	32.5 µM (inactive)	47 µM (inactive)	47.4 µM (inactive)	72.3 µM (inactive)	77.1 µM (inactive)	51.1 µM (inactive)	84.3 µM (inactive)	50.2 µM (inactive)	34.6 µM (inactive)	94.8 µM (inactive)	> 100 µM (inactive)	17.2 µM (inactive)	93.8 µM (inactive)	> 100 µM (inactive)	85.7 µM (inactive)	21.4 µM (inactive)	66.4 µM (inactive)	60.7 µM (inactive)
O=[N+]([O-])c1ccc(CN(CCCl)OCCCl)cc1	35.5 µM (inactive)	> 100 µM (inactive)	> 100 µM (inactive)	> 100 µM (inactive)	75.9 µM (inactive)	> 100 µM (inactive)	> 100 µM (inactive)	76.7 µM (inactive)	> 100 µM (inactive)	26.8 µM (inactive)	84.1 µM (inactive)	51.3 µM (inactive)	> 100 µM (inactive)	65 µM (inactive)	> 100 µM (inactive)	> 100 µM (inactive)	91.2 µM (inactive)	37.8 µM (inactive)	64.3 µM (inactive)	> 100 µM (inactive)
Cn1c(=O)c2[nH]c(CCC(=O)O)nc2n(C)c1=O	> 100 µM (inactive)	> 100 µM (inactive)	> 100 µM (inactive)	> 100 µM (inactive)	> 100 µM (inactive)	> 100 µM (inactive)	> 100 µM (inactive)	> 100 µM (inactive)	> 100 µM (inactive)	> 100 µM (inactive)	> 100 µM (inactive)	> 100 µM (inactive)	> 100 µM (inactive)	> 100 µM (inactive)	> 100 µM (inactive)	> 100 µM (inactive)	> 100 µM (inactive)	> 100 µM (inactive)	> 100 µM (inactive)	> 100 µM (inactive)
COC(=O)c1ccc(C)cc1C1CN=NC12Cc1cc(C)ccc1C2=O (stereo not given)	15.9 µM (inactive)	27.5 µM (inactive)	34 µM (inactive)	2.18 µM (inactive)	8.85 µM (inactive)	9.31 µM (inactive)	23.9 µM (inactive)	18.1 µM (inactive)	14 µM (inactive)	11.5 µM (inactive)	23.8 µM (inactive)	8.28 µM (inactive)	23.2 µM (inactive)	4.41 µM (inactive)	18.8 µM (inactive)	23.2 µM (inactive)	5.35 µM (inactive)	24 µM (inactive)	28.1 µM (inactive)	13.9 µM (inactive)
CC(C)C(NC(=O)C(Cc1ccccc1)NC(=O)[C@H]1CCC[C@H]1NC(=O)C(N)Cc1ccc(O)cc1)C(N)=O (stereo not given in full)	> 100 µM (inactive)	> 100 µM (inactive)	> 100 µM (inactive)	> 100 µM (inactive)	> 100 µM (inactive)	> 100 µM (inactive)	> 100 µM (inactive)	> 100 µM (inactive)	> 100 µM (inactive)	> 100 µM (inactive)	> 100 µM (inactive)	17.8 µM (inactive)	> 100 µM (inactive)	> 100 µM (inactive)	> 100 µM (inactive)	> 100 µM (inactive)	> 100 µM (inactive)	> 100 µM (inactive)	> 100 µM (inactive)	> 100 µM (inactive)
O=C(O)C(=Cc1ccc(-c2ccc([N+](=O)[O-])cc2)o1)C(=O)O	> 100 µM (inactive)	> 100 µM (inactive)	> 100 µM (inactive)	> 100 µM (inactive)	> 100 µM (inactive)	> 100 µM (inactive)	> 100 µM (inactive)	> 100 µM (inactive)	> 100 µM (inactive)	> 100 µM (inactive)	> 100 µM (inactive)	> 100 µM (inactive)	> 100 µM (inactive)	> 100 µM (inactive)	> 100 µM (inactive)	> 100 µM (inactive)	> 100 µM (inactive)	> 100 µM (inactive)	> 100 µM (inactive)	> 100 µM (inactive)
C[C@H]1CCC/C=C/[C@@H]2C[C@H](OC(=O)CN(C)C)C[C@H]2[C@H](O)/C=C/C(=O)O1	0.284 µM (active)	0.365 µM (active)	0.401 µM (active)	0.157 µM (active)	0.57 µM (active)	0.0778 µM (active)	0.158 µM (active)	0.129 µM (active)	0.0152 µM (active)	0.141 µM (active)	0.0612 µM (active)	0.0395 µM (active)	0.138 µM (active)	0.153 µM (active)	0.319 µM (active)	0.0586 µM (active)	0.156 µM (active)	0.0581 µM (active)	0.2 µM (active)	0.148 µM (active)
